Assay results taken from PubChem BioAssay AID248 (DTP/NCI, 2004).
Several values for one entry are separate records, joined by “and”; a condition that tells them apart may be missing. Equal entries are not always repeated. Toxic doses and inconclusive results are not listed. Rule as the data show it: active = T/C of 150% or more; inactive = T/C below 125%.

Tested on: L1210 leukemia ip in BDF1 mice, survival T/C
Assay: NCI In Vivo Anticancer Drug Screen. Data for tumor model L1210 Leukemia (intraperitoneal) in B6D2F1 (BDF1) mice
Conditions: endpoint: mean survival time, higher = longer survival
Summary of the method: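 Each compound was tested against a transplantable tumor grown in mice. The endpoint was survival, with treated animals benchmarked against vehicle controls as a simple ratio.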

[1] = dose: 100.0 mg/kg/injection, schedule: Q01DX001 (ip), vehicle: saline
[2] = dose: 200.0 mg/kg/injection, schedule: Q01DX001 (ip), vehicle: saline
[3] = dose: 400.0 mg/kg/injection, schedule: Q01DX001 (ip), vehicle: saline
[4] = dose: 100.0 mg/kg/injection, schedule: Q04DX003 (ip), vehicle: saline with Tween-80
[5] = dose: 200.0 mg/kg/injection, schedule: Q04DX003 (ip), vehicle: saline with Tween-80
[6] = dose: 400.0 mg/kg/injection, schedule: Q04DX003 (ip), vehicle: saline with Tween-80
[7] = dose: 100.0 mg/kg/injection, schedule: Q04DX002 (ip), vehicle: Klucel (hydroxypropylcellulose) (HPC)
[8] = dose: 200.0 mg/kg/injection, schedule: Q04DX002 (ip), vehicle: Klucel (hydroxypropylcellulose) (HPC)
[9] = dose: 25.0 mg/kg/injection, schedule: Q01DX009 (ip), vehicle: saline
[10] = dose: 50.0 mg/kg/injection, schedule: Q01DX009 (ip), vehicle: saline
[11] = dose: 100.0 mg/kg/injection, schedule: Q01DX009 (ip), vehicle: saline
[12] = dose: 100.0 mg/kg/injection, schedule: Q04DX003 (ip), vehicle: saline
[13] = dose: 200.0 mg/kg/injection, schedule: Q01DX009 (ip), vehicle: saline
[14] = dose: 200.0 mg/kg/injection, schedule: Q04DX003 (ip), vehicle: saline
[15] = dose: 400.0 mg/kg/injection, schedule: Q04DX003 (ip), vehicle: saline
[16] = dose: 100.0 mg/kg/injection, schedule: Q01DX009 (ip), vehicle: saline with Tween-80
[17] = dose: 200.0 mg/kg/injection, schedule: Q01DX009 (ip), vehicle: saline with Tween-80
[18] = dose: 100.0 mg/kg/injection, schedule: Q04DX003 (ip), vehicle: Klucel (hydroxypropylcellulose) (HPC)
[19] = dose: 200.0 mg/kg/injection, schedule: Q04DX003 (ip), vehicle: Klucel (hydroxypropylcellulose) (HPC)
[20] = dose: 400.0 mg/kg/injection, schedule: Q04DX003 (ip), vehicle: Klucel (hydroxypropylcellulose) (HPC)

Measured: T/C

Cc1c(/C=N\Nc2ccccc2)[nH]c(=O)[nH]c1=O
inactive: [1] 92 % of control | [2] 92 % of control | [3] 86 % of control

CCCCOC1CCS(=O)(=O)C1 (centres undefined)
inactive: dose: 100.0 mg/kg/injection, schedule: Q04DX003 (ip), vehicle: other 101 % of control | dose: 200.0 mg/kg/injection, schedule: Q04DX003 (ip), vehicle: other 101 % of control | dose: 400.0 mg/kg/injection, schedule: Q04DX003 (ip), vehicle: other 94 % of control

Cc1[nH]c(=O)[nH]c(=O)c1CN1CCCCC1
inactive: [4] 100 % of control | [5] 106 % of control | [6] 93 % of control

N=C1N=C(N)CS1
inactive: [1] 95 % of control | [2] 104 % of control | [3] 101 % of control

Clc1c2ccccc2cc2ccccc12
inactive: [7] 92 % of control | [8] 100 % of control | dose: 400.0 mg/kg/injection, schedule: Q04DX002 (ip), vehicle: Klucel (hydroxypropylcellulose) (HPC) 107 % of control

O=C1OCC/C1=C/OC(=O)c1ccccc1
inactive: [7] 97 % of control | [8] 87 % of control

C#CCN(C)Cc1ccccc1
inactive: [9] 94 % of control | [10] 89 % of control | [11] 87 % of control | [12] 103 % of control | [13] 98 % of control | [14] 103 % of control | [15] 97 % of control

O=C(Nc1ccccc1F)Oc1cccc2ccccc12
inactive: [16] 113 % of control | [17] 109 % of control | dose: 400.0 mg/kg/injection, schedule: Q01DX009 (ip), vehicle: saline with Tween-80 87 % of control

CC1(c2ccco2)NC(=O)N(Cl)C1=O (centres undefined)
inactive: dose: 6.0 mg/kg/injection, schedule: Q04DX003 (ip), vehicle: saline 93 % of control | dose: 12.0 mg/kg/injection, schedule: Q04DX003 (ip), vehicle: saline 101 % of control | [9] 87 % of control | dose: 32.0 mg/kg/injection, schedule: Q04DX003 (ip), vehicle: saline 95 % of control | [10] 98 % of control | dose: 50.0 mg/kg/injection, schedule: Q04DX003 (ip), vehicle: saline 103 % of control | [11] 88 % of control | [12] 97 % of control and 103 % of control

c1cc[c]([Sn]([c]2ccccc2)([c]2ccccc2)[CH]2CCCCC2)cc1
inactive: [12] 89 % of control | [14] 93 % of control | [15] 89 % of control

Cc1cc2oc(=O)c3c(c2c(O)c1CN1CCOCC1)CCCC3
inactive: dose: 100.0 mg/kg/injection, schedule: Q01DX001 (ip), vehicle: carboxymethylcellulose (CMC) 96 % of control | dose: 400.0 mg/kg/injection, schedule: Q01DX001 (ip), vehicle: carboxymethylcellulose (CMC) 98 % of control

CC(C)(CCc1ccccn1)C(=O)C(CCc1ccccn1)CCc1ccccn1
inactive: dose: 222.0 mg/kg/injection, schedule: Q01DX Z (ip), vehicle: saline 110 % of control | dose: 333.0 mg/kg/injection, schedule: Q01DX Z (ip), vehicle: saline 102 % of control | dose: 500.0 mg/kg/injection, schedule: Q01DX Z (ip), vehicle: saline 96 % of control

Cc1cc([N+](=O)[O-])c(N/N=C/c2c[nH]c3ccccc23)c([N+](=O)[O-])c1
inactive: [11] 102 % of control | [13] 93 % of control | dose: 400.0 mg/kg/injection, schedule: Q01DX009 (ip), vehicle: saline 98 % of control

O=Cc1cc([N+](=O)[O-])ccc1Cl
inactive: dose: 50.0 mg/kg/injection, schedule: Q01DX009 (ip), vehicle: saline with Tween-80 101 % of control | [16] 100 % of control | [4] 96 % of control | [17] 95 % of control | [5] 97 % of control

O=[N+]([O-])c1cc([N+](=O)[O-])c(NC(c2ccccc2)C(O)c2ccccc2)c([N+](=O)[O-])c1 (centres undefined)
inactive: dose: 100.0 mg/kg/injection, schedule: Q04DX003 (ip), vehicle: acetone 98 % of control | dose: 200.0 mg/kg/injection, schedule: Q04DX003 (ip), vehicle: acetone 96 % of control | dose: 400.0 mg/kg/injection, schedule: Q04DX003 (ip), vehicle: acetone 93 % of control

N/C(=C\C(=O)Cl)C(=O)c1ccccc1
inactive: dose: 100.0 mg/kg/injection, schedule: Q01DX001 (ip), vehicle: saline with Tween-80 106 % of control | dose: 200.0 mg/kg/injection, schedule: Q01DX001 (ip), vehicle: saline with Tween-80 90 % of control | dose: 400.0 mg/kg/injection, schedule: Q01DX001 (ip), vehicle: saline with Tween-80 105 % of control

CN(Cc1cnc2nc(N)c([N+](=O)[O-])c(N)c2n1)c1ccc(C(=O)NC(CCC(=O)O)C(=O)O)cc1 (centres undefined)
inactive: dose: 100.0 mg/kg/injection, schedule: Q04DX002 (ip), vehicle: sodium bicarbonate 89 % of control | dose: 200.0 mg/kg/injection, schedule: Q04DX002 (ip), vehicle: sodium bicarbonate 99 % of control

Cc1ccc(CSCc2ccc(C)cc2)cc1
inactive: dose: 100.0 mg/kg/injection, schedule: Q01DX009 (ip), vehicle: Klucel (hydroxypropylcellulose) (HPC) 100 % of control | dose: 200.0 mg/kg/injection, schedule: Q01DX009 (ip), vehicle: Klucel (hydroxypropylcellulose) (HPC) 96 % of control | dose: 400.0 mg/kg/injection, schedule: Q01DX009 (ip), vehicle: Klucel (hydroxypropylcellulose) (HPC) 92 % of control

CN(C)P(=O)(Nc1ccc(Cl)cc1)Nc1ccc(Cl)cc1
inactive: [18] 94 % of control | [19] 96 % of control | [20] 100 % of control

c1ccc(C(CC(c2ccccc2)(c2ccccc2)c2ccccc2)(c2ccccc2)c2ccccc2)cc1
inactive: [1] 96 % of control | [2] 94 % of control | [3] 105 % of control

N#Cc1ccccc1CNc1ccccc1
inactive: dose: 100.0 mg/kg/injection, schedule: Q01DX001 (ip), vehicle: Klucel (hydroxypropylcellulose) (HPC) 94 % of control | dose: 200.0 mg/kg/injection, schedule: Q01DX001 (ip), vehicle: Klucel (hydroxypropylcellulose) (HPC) 96 % of control | dose: 400.0 mg/kg/injection, schedule: Q01DX001 (ip), vehicle: Klucel (hydroxypropylcellulose) (HPC) 96 % of control

COc1ccc(OC)c(C(=O)CCCCCCCCC(=O)c2cc(OC)ccc2OC)c1
inactive: [18] 104 % of control | [19] 104 % of control | [20] 90 % of control

COC(=O)CCC(C(=O)CN1C(=O)c2ccccc2C1=O)N1C(=O)c2ccccc2C1=O (centres undefined)
inactive: [4] 96 % of control | [5] 92 % of control | [6] 92 % of control

CC(C)N(C)C(C)(C)CO
inactive: dose: 100.0 mg/kg/injection, schedule: Q04DX003 (ip), vehicle: saline sonified 92 % of control | dose: 200.0 mg/kg/injection, schedule: Q04DX003 (ip), vehicle: saline sonified 106 % of control
